Measured values from patent US20200368247A1, “CENICRIVIROC FOR THE TREATMENT OF FIBROSIS” (Tobira Therapeutics, Inc., priority 2014, published 2020).
Marks after values point to notes of the source that are not given here.

Columns and labels:
[1] = Study 201 safety (adverse events, laboratory); format: in vivo
Method: Participants were required to be antiretroviral treatment-experienced, CCR5 antagonist-naive, with HIV-1 RNA levels of at least 5000 copies/mL and CD4+ cell counts of at least 250 cells/mm^3 was performed.
There were no deaths, SAEs, or other significant AEs, and there were no discontinuations because of an AE. Most treatment-emergent AEs were mild or moderate in severity. […] The most common (≥10%) treatment-emergent AEs in this study were nausea (18.5%), diarrhea (16.7%), headache (14.8%), and fatigue (11.0%).
There were 6 subjects with ALT and/or AST elevations in the 25 mg (2 subjects), 50 mg (2 subjects), 100 mg (1 subject), and 150 mg (1 subject) dose groups, and 1 subject with an AST elevation in the placebo group during the observation period. All elevations were Grade 1, were isolated except in 2 subjects (both in the 50-mg dose group) who had more than a single elevation, and resolved without sequelae. […] The AST elevations observed in subjects in the 100 mg and 150 mg dose groups during treatment (observed in 1 subject in each dose group), returned to normal values during continuation of treatment.

[2] = Chronic (3- and 9-month) monkey toxicity studies; format: in vivo; details: 1000 mg/kg/day, 3- and 9-month monkey studies
[3] = Study 202 ECG abnormalities; format: in vivo, human; details: through Week 48
[4] = All CVC (N = 115), EFV (N = 28)

Structure (SMILES): CCCCOCCOc1ccc(-c2ccc3c(c2)/C=C(/C(=O)Nc2ccc([S@@+]([O-])Cc4cncn4CCC)cc2)CCCN3CC(C)C)cc1 [CVC, (S)-8-[4-(2-Butoxyethoxy)phenyl]-1-isobutyl-N-(4-{[(1-propyl-1H-imidazol-5-yl)methyl]sulfinyl}phenyl)-1,2,3,4-tetrahydro-1-benzazocine-5-carboxamide]
- subjects with ALT and/or AST elevations (Grade 1) ([1]; 25 mg): 2 subjects
- subjects with ALT and/or AST elevations (Grade 1) ([1]; 50 mg): 2 subjects
- subjects with ALT and/or AST elevations (Grade 1) ([1]; 100 mg): 1 subject
- subjects with ALT and/or AST elevations (Grade 1) ([1]; 150 mg): 1 subject
- tolerability ([1]; 25 to 150 mg once daily, 10 days): generally well tolerated at the doses studied
- inflammation in clinical pathology parameters or tissue incl. liver [2]: No indication of inflammation
- HR Abnormally high (120 bpm ≤ abnormally high) [3, 4]: 0 n (%)
- HR Abnormally low (≤ 50 bpm) [3, 4]: 0 n (%)
- PR Abnormally high (210 ms ≤ abnormally high) [3, 4]: 3 (3%) n (%)
- QRS Abnormally high (120 ms ≤ abnormally high) [3, 4]: 1 (1%)^d n (%)
- QRS Abnormally low (≤ 50 ms) [3, 4]: 0 n (%)
- QTcB interval Borderline (450 ms ≤ borderline ≤ 480 ms) [3, 4]: 6 (6%) n (%)
- QTcB interval Increase by >30-60 ms [3, 4]: 9 (9%) n (%)
- QTcB interval Increase by >60 ms [3, 4]: 1 (1%) n (%)
- QTcB interval Pathologically prolonged (> 500 ms) [3, 4]: 0 n (%)
- QTcB interval Prolonged (480 ms < prolonged ≤ 500 ms) [3, 4]: 0 n (%)
- QTcF interval Borderline (450 ms ≤ borderline ≤ 480 ms) [3, 4]: 2 (2%) n (%)
- QTcF interval Increase by >30-60 ms [3, 4]: 7 (7%) n (%)
- QTcF interval Increase by >60 ms [3, 4]: 1 (1%) n (%)
- QTcF interval Pathologically prolonged (> 500 ms) [3, 4]: 0 n (%)
- QTcF interval Prolonged (480 ms < prolonged ≤ 500 ms) [3, 4]: 0 n (%)
- HR Abnormally high (120 bpm ≤ abnormally high) ([3]; CVC 100 mg (N = 58)): 0 n (%)
- HR Abnormally low (≤ 50 bpm) ([3]; CVC 100 mg (N = 58)): 0 n (%)
- PR Abnormally high (210 ms ≤ abnormally high) ([3]; CVC 100 mg (N = 58)): 2 (3%) n (%)
- QRS Abnormally high (120 ms ≤ abnormally high) ([3]; CVC 100 mg (N = 58)): 1 (2%)^d n (%)
- QRS Abnormally low (≤ 50 ms) ([3]; CVC 100 mg (N = 58)): 0 n (%)
- QTcB interval Borderline (450 ms ≤ borderline ≤ 480 ms) ([3]; CVC 100 mg (N = 58)): 4 (8%) n (%)
- QTcB interval Increase by >30-60 ms ([3]; CVC 100 mg (N = 58)): 6 (12%) n (%)
- QTcB interval Increase by >60 ms ([3]; CVC 100 mg (N = 58)): 1 (2%) n (%)
- QTcB interval Pathologically prolonged (> 500 ms) ([3]; CVC 100 mg (N = 58)): 0 n (%)
- QTcB interval Prolonged (480 ms < prolonged ≤ 500 ms) ([3]; CVC 100 mg (N = 58)): 0 n (%)
- QTcF interval Borderline (450 ms ≤ borderline ≤ 480 ms) ([3]; CVC 100 mg (N = 58)): 1 (2%) n (%)
- QTcF interval Increase by >30-60 ms ([3]; CVC 100 mg (N = 58)): 4 (8%) n (%)
- QTcF interval Increase by >60 ms ([3]; CVC 100 mg (N = 58)): 1 (2%) n (%)
- QTcF interval Pathologically prolonged (> 500 ms) ([3]; CVC 100 mg (N = 58)): 0 n (%)
- QTcF interval Prolonged (480 ms < prolonged ≤ 500 ms) ([3]; CVC 100 mg (N = 58)): 0 n (%)
- HR Abnormally high (120 bpm ≤ abnormally high) ([3]; CVC 200 mg (N = 57)): 0 n (%)
- HR Abnormally low (≤ 50 bpm) ([3]; CVC 200 mg (N = 57)): 0 n (%)
- PR Abnormally high (210 ms ≤ abnormally high) ([3]; CVC 200 mg (N = 57)): 1 (2%) n (%)
- QRS Abnormally high (120 ms ≤ abnormally high) ([3]; CVC 200 mg (N = 57)): 0 n (%)
- QRS Abnormally low (≤ 50 ms) ([3]; CVC 200 mg (N = 57)): 0 n (%)
- QTcB interval Borderline (450 ms ≤ borderline ≤ 480 ms) ([3]; CVC 200 mg (N = 57)): 2 (4%) n (%)
- QTcB interval Increase by >30-60 ms ([3]; CVC 200 mg (N = 57)): 3 (6%) n (%)
- QTcB interval Increase by >60 ms ([3]; CVC 200 mg (N = 57)): 0 n (%)
- QTcB interval Pathologically prolonged (> 500 ms) ([3]; CVC 200 mg (N = 57)): 0 n (%)
- QTcB interval Prolonged (480 ms < prolonged ≤ 500 ms) ([3]; CVC 200 mg (N = 57)): 0 n (%)
- QTcF interval Borderline (450 ms ≤ borderline ≤ 480 ms) ([3]; CVC 200 mg (N = 57)): 1 (2%) n (%)
- QTcF interval Increase by >30-60 ms ([3]; CVC 200 mg (N = 57)): 3 (6%) n (%)
- QTcF interval Increase by >60 ms ([3]; CVC 200 mg (N = 57)): 0 n (%)
- QTcF interval Pathologically prolonged (> 500 ms) ([3]; CVC 200 mg (N = 57)): 0 n (%)
